The source of these data is patent publication US8026276B2, “Parenteral CCI-779 formulations containing cosolvents, an antioxidant, and a surfactant” (Wyeth LLC, priority 2002, dated 2011).

Molecules are shown by their SMILES. Bounds are passed on as bounds.

The nature of data set [1]: Stability of CCI-779 in solution with chelating agent. It counts as physicochemical. To be noted: citric acid at less than 0.01% w/v. The source says: In some embodiments, components with chelating activity are included in the formulations of the invention as the sole “antioxidant component”. Typically, such metal-binding components, when acting as chelating agents are used in the lower end of the range of concentrations for the antioxidant component provided herein. […] Additionally, such chelating agents may be used in combination with other antioxidants as part of the antioxidant component of the invention. For example, an acceptable formulation may contain both citric acid and d,l-α-tocopherol. Optimal concentrations for the selected antioxidant(s) can be readily determined by one of skill in the art, based upon the information provided herein.

A short description of another data set: Solubility of CCI-779. It counts as physicochemical. As to the method: A primary obstacle towards the formulation of CCI-779 as a parenteral dosage form is the poor aqueous solubility, which is less than 1 μg/ml. The drug is a non-electrolyte and approaches such as pH adjustment and salt formation are not useful for improving the aqueous solubility. […] These include ethanol, propylene glycol, polyethylene glycol and dimethylacetamide. Two problems or limitations exist with respect to the formulation of CCI-779 in these organic solvents. First, chemical instability has been noted in virtually all solvents. The instability can be due to oxidative degradation of CCI-779 or to cleavage of a lactone bond, resulting in the formation of the ring opened seco-CCI-779. Second, formulations of CCI-779 in organic solvents will precipitate upon dilution with aqueous infusion solutions, such as 0.9% Sodium Chloride Injection or 5% Dextrose Injections, or with blood. This is a primary limitation to the use of water miscible organic solvents, also referred to as cosolvents, when used as vehicles for highly water-insoluble compounds.

For data set [2], the system named is histologically diverse tumor cells. To be noted: cited from earlier work.
The test system of a further data set is human tumor xenografts. To be noted: nude mice; cited from earlier work.

A word on the solubility: it is how much of the substance goes into solution per volume. With `CO[C@H]1C[C@@H]2CC[C@@H](C)[C@@](O)(O2)C(=O)C(=O)N2CCCC[C@H]2C(=O)O[C@H]([C@H](C)C[C@@H]2CC[C@@H](OC(=O)C(C)(CO)CO)[C@H](OC)C2)CC(=O)[C@H](C)/C=C(\C)[C@@H](O)[C@@H](OC)C(=O)[C@H](C)C[C@H](C)/C=C/C=C/C=C/1C` [CCI-779, rapamycin 42-ester with 3-hydroxy-2-(hydroxymethyl)-2-methylpropionic acid], the “effect of citric acid on stability of CCI-779” value in data set [1] was “enhanced the stability”. Moreover, the “solubility in water-miscible organic solvents” value in the data set “Solubility of CCI-779” (ethanol, propylene glycol, polyethylene glycol, dimethylacetamide) is given as “soluble”. Also, the “solubility in pharmaceutically acceptable vegetable oils” value in the data set “Solubility of CCI-779” (vegetable oils) is reported as “poor solubility”. The solubility in “Solubility of CCI-779” (water, read-out: aqueous solubility) was < 1 µg/mL. In addition, in data set [2], the “growth of tumor cells in vitro” value was “inhibit the growth”. Besides, in the data set with human tumor xenografts, the “activity against human tumor xenografts” value is given as “has activity”.
